US20230058961A1, “SUBSTITUTED HETEROCYCLICS WITH THERAPEUTIC ACTIVITY IN HIV” (New York Blood Center, Inc., priority 2019, published 2023)

What was measured:
[1] = tested on: pseudovirus HIV-1 HXB2; test: microbe, parasite or virus in culture; format: cell-based
[2] = in vitro; details: human
Protocol: The anti-HIV-1 activity was assessed in a single-cycle assay by infecting TZM-bl indicator cells with the pseudovirus HIV-1 HXB2 according to established procedures (F. Curreli, Y. D. Kwon, D. S. Belov, R. R. Ramesh, A. V. Kurkin, A. Altieri, P. D. Kwong, A. K. Debnath, J Med Chem 2017, 60, 3124-3153; which is incorporated herein by reference for all that it teaches about the conduct and interpretation of the assay).
The cytotoxicity of the small polycyclic molecules in TZM-bl cells was determined by using the colorimetric method CellTiter 96® AQueous One Solution Cell Proliferation Assay (MTS) (Promega) following the manufacturer's instructions. Briefly, TZM-bl cells were platted in a 96-well tissue culture plate at 1×10^4/well and cultured at 37° C. Following overnight incubation, the cells were incubated with 100 μl of the compounds at graded concentrations and cultured for 3 days. The MTS reagent was added to the cells and incubated for 4 h at 37° C. The absorbance was recorded at 490 nm.

[3] = Human immunodeficiency virus 1, HXB2, TZM-bl, anti-HIV-1 activity, single-cycle assay, TZM-bl cells, pseudovirus HIV-1 HXB2, read-out: IC50
[4] = anti-HIV-1 activity, single-cycle assay, TZM-bl cells, pseudovirus HIV-1 HXB2, read-out: IC50
[5] = CC50, cytotoxicity, TZM-bl cells, MTS, 3 days

For `NCC(NC(=O)c1ccc(-c2ccc(Cl)nc2)[nH]1)c1nc(CO)cs1` (centres unmarked) [Compound 39, N-(2-Amino-1-(4-(hydroxymethyl)thiazol-2-yl)ethyl)-5-(6-chloropyridin-3-yl)-1H-pyrrole-2-carboxamide], which IC50 [1, 3] is on record?
Its IC50 is greater than 10 µM.

What about the IC50 [1, 4] of the same molecule?
Its IC50 is greater than 11 µM.

What about the CC50 at 3 days ([2]; CC50) of the same molecule?
Its CC50 at 3 days is greater than 132 µM.

And the CC50 at 3 days [2, 5]?
The CC50 at 3 days was greater than 100 µM.

Which results are given for `Cc1cc(-c2ccc(C(F)(F)F)cn2)[nH]c1C(=O)NC(CN)c1cnc(CO)s1` (centres unmarked) [Compound 61, N-(2-Amino-1-(2-(hydroxymethyl)thiazol-5-yl)ethyl)-3-methyl-5-(5-(trifluoromethyl)pyridin-2-yl)-1H-pyrrole-2-carboxamide]?
IC50 [1, 3]: 2.3 ± 1 µM; CC50 at 3 days ([2]; CC50): 65 ± 4.9 µM

What does the source list for `NCC(NC(=O)c1ccc(-c2ccc(C(F)(F)F)cn2)[nH]1)c1csc(CO)n1` (centres unmarked) [Compound 65, N-(2-Amino-1-(2-(hydroxymethyl)thiazol-4-yl)ethyl)-5-(5-(trifluoromethyl)pyridin-2-yl)-1H-pyrrole-2-carboxamide]?
IC50 [1, 3]: 1.6 ± 0.2 µM; CC50 at 3 days ([2]; CC50): 84.3 ± 1.4 µM

With `CC(C)(N)C(NC(=O)c1ccc(-c2ccc(C(F)(F)F)cn2)[nH]1)c1nc(CO)cs1` (centres unmarked) [Compound 23, N-(2-Amino-1-(4-(hydroxymethyl)thiazol-2-yl)-2-methylpropyl)-5-(5-(trifluoromethyl)pyridin-2-yl)-1H-pyrrole-2-carboxamide] as the molecule, how does the IC50 [1, 4] read?
The IC50 was 1.73 µM.

And the CC50 at 3 days ([2]; CC50)?
Its CC50 at 3 days is 61 ± 6.5 µM.

And the CC50 at 3 days [2, 5]?
The CC50 at 3 days was less than 50 µM.

Which IC50 [1, 3] does the source give for `NCC(NC(=O)c1ccc(-c2ccc(C(F)(F)F)cn2)[nH]1)c1nc(C(O)CO)cs1` (centres unmarked) [Compound 29, N-(2-Amino-1-(4-(1,2-dihydroxyethyl)thiazol-2-yl)ethyl)-5-(5-(trifluoromethyl)pyridin-2-yl)-1H-pyrrole-2-carboxamide] here?
Its IC50 is 5.2 ± 0.9 µM.

And the CC50 at 3 days ([2]; CC50)?
The CC50 at 3 days was greater than 113 µM.

What about the CC50 at 3 days [2, 5] of the same molecule?
The CC50 at 3 days was greater than 100 µM.

Which results are given for `NCC(NC(=O)c1ccc(-c2ccc(C(F)(F)F)nn2)[nH]1)c1nc(CO)cs1` (centres unmarked) [Compound 43, N-(2-Amino-1-(4-(hydroxymethyl)thiazol-2-yl)ethyl)-5-(6-(trifluoromethyl)pyridazin-3-yl)-1H-pyrrole-2-carboxamide]?
IC50 [1, 3]: > 10 µM; IC50 [1, 4]: > 12 µM; CC50 at 3 days ([2]; CC50): > 73 µM

With `NCC(NC(=O)c1ccc(-c2ccc(C(F)(F)F)cn2)[nH]1)c1nc(CO)c(CO)s1` (centres unmarked) [Compound 35, N-(2-Amino-1-(4,5-bis(hydroxymethyl)thiazol-2-yl)ethyl)-5-(5-(trifluoromethyl)pyridin-2-yl)-1H-pyrrole-2-carboxamide] as the molecule, how does the IC50 [1, 4] read?
The IC50 was 1.8 µM.

And the CC50 at 3 days ([2]; CC50)?
Its CC50 at 3 days is greater than 113 µM.

What does the source list for `NCC(NC(=O)c1ccc(-c2ccc(C(F)(F)F)c(F)c2)[nH]1)c1ncc(CO)s1` (centres unmarked) [Comparator A, reference compound]?
IC50 ([1]; TZM-bl): 0.089 µM; CC50 at 3 days ([2]; CC50): 21.9 µM

Which IC50 [1, 3] does the source give for `Cc1cc(-c2ccc(C(F)(F)F)cn2)[nH]c1C(=O)NC(C)(CN)c1nc(CO)cs1` (racemic) [Compound 31, N-(1-Amino-2-(4-(hydroxymethyl)thiazol-2-yl)propan-2-yl)-3-methyl-5-(5-(trifluoromethyl)-pyridin-2-yl)-1H-pyrrole-2-carboxamide] here?
Its IC50 is 2.6 ± 0.4 µM.

What about the CC50 at 3 days ([2]; CC50) of the same molecule?
Its CC50 at 3 days is greater than 68.3 µM.

For `NCC(NC(=O)c1ccc(-c2ccc(F)cn2)[nH]1)c1nc(CO)cs1` (centres unmarked) [Compound 17, N-(2-Amino-1-(4-(hydroxymethyl)thiazol-2-yl)ethyl)-5-(5-fluoropyridin-2-yl)-1H-pyrrole-2-carboxamide], which IC50 [1, 3] is on record?
Its IC50 is greater than 10 µM.

And the IC50 [1, 4]?
Its IC50 is greater than 11 µM.

And the CC50 at 3 days ([2]; CC50)?
Its CC50 at 3 days is greater than 138 µM.

And the CC50 at 3 days [2, 5]?
The CC50 at 3 days was greater than 100 µM.

With `NCC(NC(=O)c1ccc(-c2ccc(C(F)(F)F)cc2)[nH]1)c1ncc(CO)s1` (centres unmarked) [Comparator B, reference compound] as the molecule, how does the CC50 at 3 days ([2]; CC50) read?
Its CC50 at 3 days is 34 µM.

With `Cc1cc(-c2ccc(C(F)(F)F)cn2)[nH]c1C(=O)NC(c1ncc(CO)s1)C(C)(C)N` (centres unmarked) [Compound 11, N-(2-Amino-1-(5-(hydroxymethyl)thiazol-2-yl)-2-methylpropyl)-3-methyl-5-(5-(trifluoro-methyl)pyridin-2-yl)-1H-pyrrole-2-carboxamide] as the molecule, how does the IC50 [1, 4] read?
The IC50 was 0.6 ± 0.2 µM.

What about the CC50 at 3 days ([2]; CC50) of the same molecule?
The CC50 at 3 days was 35.3 ± 2 µM.

What about the CC50 at 3 days [2, 5] of the same molecule?
The CC50 at 3 days was less than 50 µM.

For `NCC(NC(=O)c1ccc(-c2ccc(C(F)(F)F)cn2)[nH]1)c1ncc(C(O)CO)s1` (centres unmarked) [Compound 13, N-(2-Amino-1-(5-(1,2-dihydroxyethyl)thiazol-2-yl)ethyl)-5-(5-(trifluoromethyl)pyridin-2-yl)-1H-pyrrole-2-carboxamide], which IC50 [1, 4] is on record?
Its IC50 is 2.1 ± 0.3 µM.

What about the CC50 at 3 days ([2]; CC50) of the same molecule?
The CC50 at 3 days was greater than 113 µM.

And the CC50 at 3 days [2, 5]?
The CC50 at 3 days was greater than 100 µM.

Which IC50 [1, 3] does the source give for `COc1cc(-c2ccc(C(=O)NC(CN)c3nc(CO)cs3)[nH]2)ccn1` (centres unmarked) [Compound 47, N-(2-Amino-1-(4-(hydroxymethyl)thiazol-2-yl)ethyl)-5-(2-methoxypyridin-4-yl)-1H-pyrrole-2-carboxamide] here?
Its IC50 is greater than 10 µM.

And the IC50 [1, 4]?
Its IC50 is greater than 11 µM.

And the CC50 at 3 days ([2]; CC50)?
The CC50 at 3 days was greater than 133 µM.

With `Cc1cc(-c2ccc(C(F)(F)F)cn2)[nH]c1C(=O)NC(CN)c1ncc(CO)s1` (centres unmarked) [Compound 7, N-(2-amino-1-(5-(hydroxymethyl)thiazol-2-yl)ethyl)-3-methyl-5-(5-(trifluoromethyl)pyridin-2-yl)-1H-pyrrole-2-carboxamide] as the molecule, how does the IC50 [1, 3] read?
Its IC50 is less than 1 µM.

What about the CC50 at 3 days ([2]; CC50) of the same molecule?
Its CC50 at 3 days is 92.8 ± 2.4 µM.

With `NCC(NC(=O)c1ccc(-c2ccc(Cl)cn2)[nH]1)c1ncc(CO)s1` (centres unmarked) [Compound 2, N-(2-Amino-1-(5-(hydroxymethyl)thiazol-2-yl)ethyl)-5-(5-chloropyridin-2-yl)-1H-pyrrole-2-carboxamide] as the molecule, how does the IC50 [1, 4] read?
The IC50 was 2.7 ± 0.7 µM.

What about the CC50 at 3 days ([2]; CC50) of the same molecule?
The CC50 at 3 days was 142 ± 1.7 µM.

Which IC50 [1, 4] does the source give for `NCC(NC(=O)c1ccc(-c2ccc(Cl)cn2)[nH]1)c1nc(CO)cs1` (centres unmarked) [Compound 15, N-(2-Amino-1-(4-(hydroxymethyl)thiazol-2-yl)ethyl)-5-(5-chloropyridin-2-yl)-1H-pyrrole-2-carboxamide] here?
Its IC50 is 5 ± 0.5 µM.

What about the CC50 at 3 days ([2]; CC50) of the same molecule?
Its CC50 at 3 days is greater than 132 µM.

What about the CC50 at 3 days [2, 5] of the same molecule?
The CC50 at 3 days was greater than 100 µM.

Which IC50 [1, 3] does the source give for `Cc1cc(-c2ccc(C(F)(F)F)cn2)[nH]c1C(=O)NC(CN)c1csc(CO)n1` (centres unmarked) [Compound 63, N-(2-Amino-1-(2-(hydroxymethyl)thiazol-4-yl)ethyl)-3-methyl-5-(5-(trifluoromethyl)pyridin-2-yl)-1H-pyrrole-2-carboxamide] here?
Its IC50 is 1.4 ± 0.1 µM.

And the CC50 at 3 days ([2]; CC50)?
The CC50 at 3 days was 42.3 ± 0.2 µM.

For `CC(CN)(NC(=O)c1ccc(-c2ccc(C(F)(F)F)cn2)[nH]1)c1nc(CO)cs1` (racemic) [Compound 32, N-(1-Amino-2-(4-(hydroxymethyl)thiazol-2-yl)propan-2-yl)-5-(5-(trifluoromethyl)pyridin-2-yl)-1H-pyrrole-2-carboxamide], which IC50 [1, 3] is on record?
Its IC50 is 5.1 ± 0.4 µM.

And the CC50 at 3 days ([2]; CC50)?
The CC50 at 3 days was greater than 70.5 µM.

For `NCC(NC(=O)c1ccc(-c2ccc(C(F)(F)F)cn2)[nH]1)c1csc(C(=O)NCCO)n1` (centres unmarked) [Compound 69, 4-(2-Amino-1-(5-(5-(trifluoromethyl)pyridin-2-yl)-1H-pyrrole-2-carboxamido)ethyl)-N-(2-hydroxyethyl)thiazole-2-carboxamide], which IC50 [1, 3] is on record?
Its IC50 is greater than 21.3 µM.

What about the CC50 at 3 days ([2]; CC50) of the same molecule?
The CC50 at 3 days was greater than 107 µM.

What does the source list for `NCC(NC(=O)c1ccc(-c2ccc(C(F)(F)F)cn2)[nH]1)c1nc(CCO)cs1` (centres unmarked) [Compound 25, N-(2-Amino-1-(4-(2-hydroxyethyl)thiazol-2-yl)ethyl)-5-(5-(trifluoromethyl)pyridin-2-yl)-1H-pyrrole-2-carboxamide]?
IC50 [1, 4]: 1.7 µM; CC50 at 3 days ([2]; CC50): 100 ± 7 µM

For `NCC(NC(=O)c1ccc(-c2ccc(Cl)cn2)[nH]1)c1csc(CO)n1` (centres unmarked) [Compound 67, N-(2-Amino-1-(2-(hydroxymethyl)thiazol-4-yl)ethyl)-5-(5-chloropyridin-2-yl)-1H-pyrrole-2-carboxamide], which CC50 at 3 days ([2]; CC50) is on record?
Its CC50 at 3 days is greater than 106 µM.
